Source: the NIST ThermoML archive (doi:10.1016/j.tca.2018.01.023)
Values joined by “and” are separate entries in the source; they are usually repeats but may differ in a detail not shown here. Equal values may be shown once.

Assay: molar heat capacity at constant pressure
Conditions: 101.33 kPa, Crystal, Small sample (50 mg) DSC

[Ca+2].[O]=[Mo](=[O])([O-])[O-] [calcium molybdate(VI)]
Conditions	molar heat capacity at constant pressure
495.4 K	135.5 J/K/mol
495.8 K	135.8 J/K/mol
496.4 K	135.6 J/K/mol
496.8 K	135.8 J/K/mol
497.4 K	135.6 J/K/mol
497.8 K	135.9 J/K/mol
498.4 K	135.7 J/K/mol
498.8 K	136 J/K/mol
499.4 K	135.8 J/K/mol
499.8 K	136 J/K/mol
500 K	136 J/K/mol
500.4 K	135.9 J/K/mol
500.8 K	136.1 J/K/mol
501.4 K	136 J/K/mol
501.8 K	136.1 J/K/mol
502.4 K	136.1 J/K/mol
502.8 K	136.1 J/K/mol
503.4 K	136.2 J/K/mol
503.8 K	136.2 J/K/mol
504.4 K	136.2 J/K/mol
504.8 K	136.2 J/K/mol
505.4 K	136.3 J/K/mol
505.8 K	136.3 J/K/mol
506.4 K	136.3 J/K/mol
506.8 K	136.4 J/K/mol
507.4 K	136.4 J/K/mol
507.8 K	136.5 J/K/mol
508.4 K	136.5 J/K/mol
508.8 K	136.5 J/K/mol
509.4 K	136.6 J/K/mol
509.8 K	136.5 J/K/mol
510 K	136.6 J/K/mol
510.4 K	136.6 J/K/mol
510.8 K	136.6 J/K/mol
511.4 K	136.7 J/K/mol
511.8 K	136.7 J/K/mol
512.4 K	136.8 J/K/mol
512.8 K	136.8 J/K/mol
513.4 K	136.9 J/K/mol
513.8 K	136.9 J/K/mol
514.4 K	137 J/K/mol
514.8 K	136.9 J/K/mol
515.4 K	137.1 J/K/mol
515.8 K	137 J/K/mol
516.4 K	137.1 J/K/mol
516.8 K	137 J/K/mol
517.4 K	137.2 J/K/mol
517.8 K	137.1 J/K/mol
518.4 K	137.3 J/K/mol
518.8 K	137.2 J/K/mol
519.4 K	137.3 J/K/mol
519.8 K	137.3 J/K/mol
520 K	137.3 J/K/mol
520.4 K	137.4 J/K/mol
520.8 K	137.3 J/K/mol
521.4 K	137.5 J/K/mol
521.8 K	137.4 J/K/mol
522.4 K	137.6 J/K/mol
522.8 K	137.5 J/K/mol
523.4 K	137.7 J/K/mol
523.8 K	137.6 J/K/mol
524.4 K	137.7 J/K/mol
524.8 K	137.6 J/K/mol
525.4 K	137.8 J/K/mol
525.8 K	137.7 J/K/mol
526.4 K	137.8 J/K/mol
526.8 K	137.7 J/K/mol
527.4 K	137.9 J/K/mol
527.8 K	137.7 J/K/mol
528.4 K	137.9 J/K/mol
528.9 K	137.8 J/K/mol
529.4 K	138 J/K/mol
529.9 K	137.8 J/K/mol
530 K	137.9 J/K/mol
530.4 K	138.1 J/K/mol
530.9 K	137.8 J/K/mol
531.4 K	138.1 J/K/mol
531.9 K	137.8 J/K/mol
532.4 K	138.2 J/K/mol
532.9 K	137.9 J/K/mol
533.4 K	138.2 J/K/mol
533.9 K	138 J/K/mol
534.4 K	138.3 J/K/mol
534.9 K	138.1 J/K/mol
535.4 K	138.3 J/K/mol
535.9 K	138.2 J/K/mol
536.4 K	138.4 J/K/mol
536.9 K	138.3 J/K/mol
537.4 K	138.5 J/K/mol
537.9 K	138.4 J/K/mol
538.4 K	138.5 J/K/mol
538.9 K	138.5 J/K/mol
539.4 K	138.6 J/K/mol
539.9 K	138.7 J/K/mol
540 K	138.4 J/K/mol
540.4 K	138.7 J/K/mol
540.9 K	138.8 J/K/mol
541.4 K	138.7 J/K/mol
541.9 K	138.8 J/K/mol
542.4 K	138.8 J/K/mol
542.9 K	138.8 J/K/mol
543.4 K	138.8 J/K/mol
543.9 K	138.9 J/K/mol
544.4 K	138.9 J/K/mol
544.9 K	138.9 J/K/mol
545.4 K	138.9 J/K/mol
545.9 K	138.9 J/K/mol
546.4 K	139 J/K/mol
546.9 K	138.9 J/K/mol
547.4 K	139 J/K/mol
547.9 K	139 J/K/mol
548.4 K	139 J/K/mol
548.9 K	139.1 J/K/mol
549.4 K	139 J/K/mol
549.9 K	139.2 J/K/mol
550 K	139 J/K/mol
550.4 K	139.1 J/K/mol
550.9 K	139.3 J/K/mol
551.4 K	139.1 J/K/mol
551.9 K	139.5 J/K/mol
552.4 K	139.2 J/K/mol
552.9 K	139.6 J/K/mol
553.4 K	139.2 J/K/mol
553.9 K	139.7 J/K/mol
554.4 K	139.3 J/K/mol
554.9 K	139.8 J/K/mol
555.4 K	139.3 J/K/mol
555.9 K	139.8 J/K/mol
556.4 K	139.4 J/K/mol
556.9 K	139.8 J/K/mol
557.4 K	139.5 J/K/mol
557.9 K	139.8 J/K/mol
558.4 K	139.5 J/K/mol
558.9 K	139.8 J/K/mol
559.4 K	139.6 J/K/mol
559.9 K	139.9 J/K/mol
560 K	139.5 J/K/mol
560.4 K	139.7 J/K/mol
560.9 K	139.9 J/K/mol
561.4 K	139.7 J/K/mol
561.9 K	140 J/K/mol
562.4 K	139.8 J/K/mol
562.9 K	140.2 J/K/mol
563.4 K	139.8 J/K/mol
563.9 K	140.4 J/K/mol
564.4 K	139.9 J/K/mol
564.9 K	140.6 J/K/mol
565.4 K	139.9 J/K/mol
565.9 K	140.7 J/K/mol
566.4 K	139.9 J/K/mol
566.9 K	140.8 J/K/mol
567.4 K	139.9 J/K/mol
568 K	140.8 J/K/mol
568.4 K	140 J/K/mol
569 K	140.9 J/K/mol
569.4 K	140.1 J/K/mol
570 K	140 J/K/mol and 141 J/K/mol
570.4 K	140.2 J/K/mol
571 K	141 J/K/mol
571.4 K	140.2 J/K/mol
572 K	141 J/K/mol
572.4 K	140.3 J/K/mol
573 K	141 J/K/mol
573.4 K	140.3 J/K/mol
574 K	141.1 J/K/mol
574.4 K	140.4 J/K/mol
575 K	141.2 J/K/mol
575.4 K	140.4 J/K/mol
576 K	141.2 J/K/mol
576.4 K	140.5 J/K/mol
577 K	141.3 J/K/mol
577.4 K	140.6 J/K/mol
578 K	141.3 J/K/mol
578.4 K	140.7 J/K/mol
579 K	141.2 J/K/mol
579.4 K	140.7 J/K/mol
580 K	140.5 J/K/mol and 141.2 J/K/mol
580.4 K	140.8 J/K/mol
581 K	141.2 J/K/mol
581.4 K	140.8 J/K/mol
582 K	141.3 J/K/mol
582.4 K	140.8 J/K/mol
583 K	141.3 J/K/mol
583.4 K	140.9 J/K/mol
584 K	141.4 J/K/mol
584.4 K	140.9 J/K/mol
585 K	141.6 J/K/mol
585.4 K	141 J/K/mol
586 K	141.7 J/K/mol
586.4 K	141 J/K/mol
587 K	141.8 J/K/mol
587.4 K	141 J/K/mol
588 K	141.9 J/K/mol
588.4 K	141 J/K/mol
589 K	142 J/K/mol
589.4 K	141 J/K/mol
590 K	141 J/K/mol and 142.1 J/K/mol
590.4 K	141.1 J/K/mol
591 K	142.1 J/K/mol
591.4 K	141.2 J/K/mol
592 K	142 J/K/mol
592.4 K	141.2 J/K/mol
593 K	142 J/K/mol
593.4 K	141.2 J/K/mol
594 K	142 J/K/mol
594.4 K	141.2 J/K/mol
595 K	142 J/K/mol
595.4 K	141.2 J/K/mol
596 K	142.1 J/K/mol
